Laboratory results reported in PMC8803906, “Metabolite Identification and Pharmacokinetic Behavior of Diaveridine in the Plasma of Pigs and Chickens Based on Radioactive Tracing Coupled With LC/MS-IT-TOF Assay” (Frontiers in Veterinary Science, 2022).
“Also recorded” adds a separate entry of the source.

Columns and labels:
[1] = Plasma pharmacokinetics of DVD and its metabolites in pigs after a single oral dose of ^3H-DVD (radioactive tracing, LC-v.ARC/MS-IT-TOF); conditions: for Concentration in plasma: pigs
Source text: (§1) Four healthy castrated male pigs (Landrace/Doric Cross, 60-d-old, 30 ± 2 kg) were supplied by the China Breeding Pig Testing Center of Huazhong Agricultural University (Wuhan, China). Six healthy Cobb 500 broiler chickens (three female and three male, 40-d-old, 2.5 ± 0.1 kg) were purchased from Wuhan Chia Tai chicken farm (Wuhan, China). All animals were maintained under standard environmental conditions by using normal husbandry practices and were acclimatized for 1 week. The animals were fed a commercial standard diet and water ad libitum, but were fasted overnight before dose administration and up to 4 h after dose administration. All animal care and experimental protocols were conducted in accordance with the Guide for the Care and Use of Laboratory Animals of Hubei Provincial Laboratory Animal Public Service Center (permit number SYXK 2013-0044) and approved by the Ethics Committee of Huazhong Agricultural University.
(§2) Pigs (n = 4) and chickens (n = 6) were weighed individually and given a single dose of 10 mg/kg BW ^3H-DVD with a specific activity of 0.23 Ci/g. The ^3H-DVD solution was prepared by accurately mixing ^3H-DVD and non-labeled DVD at a mass ratio of 1:96 and diluting it with 0.5% methylcellulose to make a homogeneous suspension with a concentration of 25 mg/ml. The suspension was administered by gastric gavage using a soft stomach tube connected to an injection syringe. About 1.5 ml of blood was collected into heparinized tubes from the anterior venae cavae of pig and the wing veins of chicken at different time points. For pigs, blood was collected before administration and 0.17, 0.33, 0.5, 0.67, 1, 1.5, 2, 4, 6, 8, 12, 24, 48, 72, 168, and 336 h after oral treatment. For chickens, blood was collected before administration and 0.25, 0.5, 1, 1.5, 2, 4, 6, 8, 12, 24, 36, 48, 72, 168, and 336 h after oral dosing. Plasma samples were collected after centrifugation at 4°C and 2,254 × g for 10 min and were stored at −20°C until analysis.
(§3) Plasma samples were completely thawed at room temperature. Each sample was divided into two parts, one was used for the assay of total radioactivity, and the other was subjected to a MCX Solid Phase Extraction (SPE) procedure for the qualitative and quantitative analysis of DVD-related metabolites.
(§4) The total radioactivity assay was conducted in accordance with a previous study with a few modifications ([20]). Briefly, 50 μl of plasma was mixed with 50 μl of 0.1 mol/L EDTA-Na and 50 μl of 30% H2O2 at 50°C in a shaking water bath for 2 h for bleaching. The obtained transparent liquid was mixed with 10 ml of Ultima Gold™ scintillation fluid and was analyzed directly using a Packard Tri-Carb 2900 TR liquid scintillation counter (PerkinElmer Life and Analytical Sciences, Waltham, MA, USA). The scintillation counter data were automatically corrected for counting efficiency using an instrument-stored quench curve that was drawn with a series of sealed quenched ^14C standards. All the samples were analyzed in duplicate and the actual radioactivity of each sample was calculated by subtracting the […].
(§5) A 500 μl plasma sample was adjusted to pH 2.8–3.2 with 1 ml of 1 M hydrochloric acid (HCl), and a […] aliquot of the mixture was placed in a MCX cartridge preconditioned with 3 ml of methanol followed by 3 ml of 0.1 mol/L HCl water. The cartridge was washed with 3 ml of 0.1 mol/L HCl water and then eluted with 5 ml NH4OH/methanol (8:92, v:v). The effluent was concentrated to dryness under a stream of nitrogen at 40°C. The residue was reconstituted in 250 μl of methanol-water (1:9, v:v) before injection onto the LC-v.ARC/MS-IT-TOF system for metabolite identification and quantitation.
(§6) Measurement of total radioactivity in each sample was conducted using a Packard Tri-Carb 2900 TR liquid scintillation counter. The detection time was 10 min for two cycles.

[2] = Plasma pharmacokinetics of DVD and its metabolites in chickens after a single oral dose of ^3H-DVD (radioactive tracing, LC-v.ARC/MS-IT-TOF); conditions: for Concentration in plasma: chickens
Source text: as §1, §2, §3, §4, §5, §6

[3] = parameters: method as in PMID 22161732; conditions: pig liver microsomes incubated with DVD; cited from earlier work
[4] = pig plasma, oral ^3H-DVD 10 mg/kg BW
[5] = single oral ^3H-DVD 10 mg/kg BW, 1 h
[6] = single oral ^3H-DVD 10 mg/kg BW, 1.5 h
[7] = single oral ^3H-DVD 10 mg/kg BW, 2 h
[8] = single oral ^3H-DVD 10 mg/kg BW, 4 h
[9] = single oral ^3H-DVD 10 mg/kg BW, 6 h
[10] = single oral ^3H-DVD 10 mg/kg BW, 8 h
[11] = single oral ^3H-DVD 10 mg/kg BW, 12 h
[12] = chicken plasma, oral ^3H-DVD 10 mg/kg BW

COc1ccc(Cc2cnc(N)nc2N)cc1OC1OC(C(=O)O)C(O)C(O)C1O (stereo not drawn) [D2, monoglucuronide of 3′-desmethyl-DVD]
AUC0−∞ [1, 4]: 17.58 ± 2.32 µg·h/mL
ClB (total body clearance) [1, 4]: 0.58 ± 0.08 L/h/kg
Cmax (maximum drug concentration) [1, 4]: 1.38 ± 0.04 µg/mL
MRT0−∞ [1, 4]: 23.01 ± 1.48 h
MRTLast [1, 4]: 14.91 ± 0.41 h
Tmax (time to Cmax from time zero) [1, 4]: 2 h
Vd (apparent volume of distribution) [1, 4]: 15.39 ± 3.28 L/kg
t1/2 (elimination half-life) ([1]; pig plasma, oral ^3H-DVD 10 mg/kg BW, non-compartmental): 18.26 ± 1.70 h
Radioactive compound detected/identified in plasma ([1]; pig plasma, single oral ^3H-DVD 10 mg/kg BW): identified; also recorded: detected
Concentration in plasma ([1]; single oral ^3H-DVD 10 mg/kg BW, 0.17 h, ND = below the LOQ): 0.10 ± 0.03 µg/mL
Concentration in plasma ([1]; single oral ^3H-DVD 10 mg/kg BW, 0.33 h, ND = below the LOQ): 0.26 ± 0.11 µg/mL
Concentration in plasma ([1]; single oral ^3H-DVD 10 mg/kg BW, 0.5 h, ND = below the LOQ): 0.52 ± 0.15 µg/mL
Concentration in plasma ([1]; single oral ^3H-DVD 10 mg/kg BW, 0.67 h): 0.61 ± 0.19 µg/mL
Concentration in plasma [1, 5]: 0.69 ± 0.20 µg/mL
Concentration in plasma [1, 6]: 1.23 ± 0.04 µg/mL
Concentration in plasma [1, 7]: 1.38 ± 0.04 µg/mL
Concentration in plasma [1, 8]: 0.66 ± 0.05 µg/mL
Concentration in plasma [1, 9]: 0.50 ± 0.08 µg/mL
Concentration in plasma [1, 10]: 0.41 ± 0.07 µg/mL
Concentration in plasma [1, 11]: 0.35 ± 0.06 µg/mL
Concentration in plasma ([1]; single oral ^3H-DVD 10 mg/kg BW, 24 h): 0.27 ± 0.08 µg/mL
Concentration in plasma ([1]; single oral ^3H-DVD 10 mg/kg BW, 48 h): 0.09 ± 0.01 µg/mL
AUC0−∞ [2, 12]: 1.73 ± 0.44 µg·h/mL
ClB (total body clearance) [2, 12]: 6.15 ± 1.58 L/h/kg
Cmax (maximum drug concentration) [2, 12]: 0.27 ± 0.08 µg/mL
MRT0−∞ [2, 12]: 6.20 ± 0.18 h
MRTLast [2, 12]: 4.66 ± 0.17 h
Tmax (time to Cmax from time zero) [2, 12]: 2 h
Vd (apparent volume of distribution) [2, 12]: 32.45 ± 12.36 L/kg
t1/2 (elimination half-life) ([2]; chicken plasma, oral ^3H-DVD 10 mg/kg BW, non-compartmental): 3.56 ± 0.44 h
Radioactive compound detected/identified in plasma ([2]; chicken plasma, single oral ^3H-DVD 10 mg/kg BW): identified; also recorded: detected
Concentration in plasma [2, 5]: 0.12 ± 0.03 µg/mL
Concentration in plasma [2, 6]: 0.23 ± 0.03 µg/mL
Concentration in plasma [2, 7]: 0.27 ± 0.09 µg/mL
Concentration in plasma [2, 8]: 0.18 ± 0.06 µg/mL
Concentration in plasma [2, 9]: 0.14 ± 0.05 µg/mL
Concentration in plasma [2, 10]: 0.09 ± 0.03 µg/mL
Concentration in plasma [2, 11]: 0.04 ± 0.01 µg/mL
Metabolite detected in vitro [3]: no D2 was found
